Measurements from patent publication US8163777B2, “Benzimidazolyl-pyridine compounds for inflammation and immune-related uses” (Synta Pharmaceuticals Corp., priority 2006, dated 2012).

system: IL-2 production; assay: Inhibition of IL-2 production in PHA-activated Jurkat cells (ELISA); format: cell-based; conditions: Homo sapiens, PHA 2.5 μg/mL, 20 hours, bin given with mixed units 500 nM-1 μM
Protocol: Jurkat cells were placed in a 96 well plate (0.5 million cells per well in 1% FBS medium) then test compounds of this invention were added at different concentrations. After 10 minutes, the cells were activated with PHA (final concentration 2.5 μg/mL) and incubated for 20 hours at 37° C. under CO2. The final volume was 200 μL. Following incubation, the cells were centrifuged and the supernatants collected and stored at −70° C. prior to assaying for IL-2 production. A commercial ELISA kit (IL-2 Eli-pair, Diaclone Research, Besancon, France) was used to detect production of IL-2, from which dose response curves were obtained. The IC50 value was calculated as the concentration at which 50% of maximum IL-2 production after stimulation was inhibited versus a non-stimulation control.

Row | IC50 [nM] | Structure (SMILES)
1 | 500 to 1000 | COc1ccc2c(c1)nc(C(F)(F)F)n2-c1ccc(NC(=O)c2cccc(C)c2)nc1 [Compound 198, N-[5-(5-Methoxy-2-trifluoromethyl-benzoimidazol-1-yl)-pyridin-2-yl]-3-methyl-benzamide]
2 | 500 to 1000 | COc1ccc2c(c1)nc(C(F)(F)F)n2-c1ccc(NC(=O)C2CCC2)nc1 [Compound 169, Cyclobutanecarboxylic acid [5-(5-methox-2-trifluoromethyl-benzoimidazol-1-yl)-pyridin-2-yl]-amide]
3 | 500 to 1000 | O=C(Nc1ccc(-n2c(C(F)(F)F)nc3cccnc32)cc1)c1cccc(F)c1F [Compound 44, 2,3-Difluoro-N-[4-(2-trifiuoromethyl-imidazo[4,5-b]pyrid-3-yl)-phenyl]-benzamide]
4 | 500 to 1000 | COc1ccc2c(c1)nc(C(F)(F)F)n2-c1ccc(NC(=O)Cc2cccs2)cc1 [Compound 94, 2-(Thien-2-yl)-N-[4-(2-trifluoromethyl-5-methoxy-benzoimidazol-1-yl)-phenyl]-acetamide]
5 | 500 to 1000 | N#C/C(=C\c1ccc(-n2c(C(F)(F)F)nc3ccccc32)cc1)c1cc(F)ccc1F [Compound 48, 1-(2,5-difluoro-phenyl)-3-[4-(2-trifluoromethyl-benzoimidazol-1-yl)-phenyl]-acrylonitrile]
6 | 500 to 1000 | Cc1cc2nc(C(F)(F)F)n(-c3ccc(NC(=O)c4cccc(F)c4F)cc3)c2cc1C [Compound 42, 2,3-Difluoro-N-[4-(2-trifluoromethyl-5,6-dimethyl-benzoimidazol-1-yl)-phenyl]-benzamide]
7 | 500 to 1000 | COc1ccc2c(c1)nc(C(F)(F)F)n2-c1ccc(NC(=O)c2cccc(C(F)(F)F)c2)cc1 [Compound 91, 3-Trifluoromethyl-N-[4-(2-trifluoromethyl-5-methoxy-benzoimidazol-1-yl)-phenyl]-benzamide]
8 | 500 to 1000 | O=C(Nc1ccc(-n2c(C(F)(F)F)nc3ccccc32)nc1)c1cc(F)ccc1F [Compound 41, 2,5-Difiuoro-N-[2-(2-trifluoromethyl-benzoimidazol-1-yl)-pyrid-5-yl]-benzamide]
9 | 500 to 1000 | O=C(Nc1ccc(-n2c(C(F)(F)F)nc3cccnc32)cc1)c1cc(F)ccc1F [Compound 56, 2,5-Difluoro-N-[4-(2-trifluoromethyl-imidazo[4,5-b]pyrid-3-yl)-phenyl]-benzamide]

same assay, conditions: Homo sapiens, PHA 2.5 μg/mL, 20 hours, binned values

Row | IC50 [nM] | Structure (SMILES)
10 | > 1000 | COc1ccc2c(c1)nc(C(F)(F)F)n2-c1ccc(NC(=O)c2ccccc2OC)nc1 [Compound 206, 2-Methoxy-N-[5-(5-methoxy-2-trifluoromethyl-benzoimidazol-1-yl)-pyridin-2-yl]-benzamide]
11 | > 1000 | COc1ccc2c(c1)nc(C(F)(F)F)n2-c1ccc(NC(=O)c2ccc(C)cc2)nc1 [Compound 211, N-[5-(5-Methoxy-2-trifluoromethyl-benzoimidazol-1-yl)-pyridin-2-yl]-4-methyl-benzamide]
12 | > 1000 | COc1ccc2c(c1)nc(C(F)(F)F)n2-c1ccc(NC(=O)C(C)(C)C)nc1 [Compound 213, N-[5-(5-Methoxy-2-trifluoromethyl-benzoimidazol-1-yl)-pyridin-2-yl]-2,2-dimethyl-propionamide]
13 | 100 to 500 | COc1ccc2c(c1)nc(C(F)(F)F)n2-c1ccc(NC(=O)c2ccc([N+](=O)[O-])cc2)nc1 [Compound 190, N-[5-(5-Methoxy-2-trifluoromethyl-benzoimidazol-1-yl)-pyridin-2-yl]-4-nitro-benzamide]
14 | > 1000 | COc1ccc2c(c1)nc(C(F)(F)F)n2-c1ccc(NC(=O)c2ccc(SC)cc2)nc1 [Compound 210, N-[5-(5-Methoxy-2-trifluoromethyl-benzoimidazol-1-yl)-pyridin-2-yl]-4-methylsulfanyl-benzamide]
15 | 100 to 500 | COc1ccc2c(c1)nc(C(F)(F)F)n2-c1ccc(NC(=O)c2ccncc2F)nc1 [Compound 201, 3-Fluoro-N-[5-(5-methoxy-2-trifluoromethyl-benzoimidazol-1-yl)-pyridin-2-yl]-isonicotinamide]
16 | < 100 | COc1ccc2c(c1)nc(C(F)(F)F)n2-c1ccc(NC(=O)CC(C)C)nc1 [Compound 189, N-[5-(5-Methoxy-2-trifluoromethyl-benzoimidazol-1-yl)-pyridin-2-yl]-3-methyl-butyramide]
17 | > 1000 | COc1cccc(C(=O)Nc2ccc(-n3c(C(F)(F)F)nc4cc(OC)ccc43)cn2)c1 [Compound 204, 3-Methoxy-N-[5-(5-methoxy-2-trifluoromethyl-benzoimidazol-1-yl)-pyridin-2-yl]-benzamide]
18 | > 1000 | CNCc1ccc(C(=O)Nc2ccc(-n3c(C(F)(F)F)nc4cc(OC)ccc43)cn2)cc1 [Compound 212, N-[5-(5-Methoxy-2-trifluoromethyl-benzoimidazol-1-yl)-pyridin-2-yl]-4-methylaminomethyl-benzamide]
19 | 100 to 500 | COc1ccc2c(c1)nc(C(F)(F)F)n2-c1ccc(NC(=O)c2scnc2Br)nc1 [Compound 195, 4-Bromo-thiazole-5-carboxylic acid [5-(5-methoxy-2-trifluoromethyl-benzoimidazol-1-yl)-pyridin-2-yl]-amide]
20 | > 1000 | COc1ccc2c(c1)nc(C(F)(F)F)n2-c1ccc(NC(=O)c2ncc[nH]2)nc1 [Compound 216, 1H-Imidazole-2-carboxylic acid [5-(5-methoxy-2-trifluoromethyl-benzoimidazol-1-yl)-pyridin-2-yl]-amide]
21 | < 100 | COc1ccc2c(c1)nc(C(F)(F)F)n2-c1ccc(NC(=O)c2ccccc2[N+](=O)[O-])nc1 [Compound 197, 2-Nitro-N-[5-(5-methoxy-2-trifluoromethyl-benzoimidazol-1-yl)-pyridin-2-yl]-benzamide]
22 | > 1000 | COc1ccc2c(c1)nc(C(F)(F)F)n2-c1ccc(NC(=O)c2cccc(N(C)C)c2)nc1 [Compound 208, 3-Dimethylamino-N-[5-(5-methoxy-2-trifluoromethyl-benzoimidazol-1-yl)-pyridin-2-yl]-benzamide]
23 | > 1000 | COc1ccc2c(c1)nc(C(F)(F)F)n2-c1ccc(NC(=O)c2ccc(N(C)C)cc2)nc1 [Compound 203, 4-Dimethylamino-N-[5-(5-methoxy-2-trifluoromethyl-benzoimidazol-1-yl)-pyridin-2-yl]-benzamide]
24 | 100 to 500 | COc1ccc2c(c1)nc(C(F)(F)F)n2-c1ccc(NC(=O)c2ccc(Br)cc2)nc1 [Compound 196, 4-Bromo-N-[5-(5-methoxy-2-trifluoromethyl-benzoimidazol-1-yl)-pyridin-2-yl]-benzamide]
25 | > 1000 | CCc1ccc(C(=O)Nc2ccc(-n3c(C(F)(F)F)nc4cc(OC)ccc43)cn2)cc1 [Compound 215, 4-Ethyl-N-[5-(5-methoxy-2-trifluoromethyl-benzoimidazol-1-yl)-pyridin-2-yl]-benzamide]
26 | < 100 | COc1ccc2c(c1)nc(C(F)(F)F)n2-c1ccc(NC(=O)c2ccccc2F)nc1 [Compound 185, 2-Fluoro-N-[5-(5-methoxy-2-trifluoromethyl-benzoimidazol-1-yl)-pyridin-2-yl]-benzamide]
27 | > 1000 | CCCc1ccc(C(=O)Nc2ccc(-n3c(C(F)(F)F)nc4cc(OC)ccc43)cn2)cc1 [Compound 207, N-[5-(5-Methoxy-2-trifluoromethyl-benzoimidazol-1-yl)-pyridin-2-yl]-4-propyl-benzamide]
28 | > 1000 | COc1ccc2c(c1)nc(C(F)(F)F)n2-c1ccc(NC(=O)c2cccc(SC)c2)nc1 [Compound 209, N-[5-(5-Methoxy-2-trifluoromethyl-benzoimidazol-1-yl)-pyridin-2-yl]-3-methylsulfanyl-benzamide]

Further lines, the molecule ahead of its results:

Row | Structure (SMILES) | IC50 [nM]
29 | COc1ccc2c(c1)nc(C(F)(F)F)n2-c1ccc(NC(C)=O)nc1 [Compound 164, N-[5-(5-Methoxy-2-trifluoromethyl-benzoimidazol-1-yl)-pyridin-2-yl]-acetamide] | > 1000
30 | COc1ccc2c(c1)nc(C(F)(F)F)n2-c1ccc(NC(=O)c2ccc(F)cc2)nc1 [Compound 170, 4-Fluoro-N-[5-(5-methoxy-2-trifluoromethyl-benzoimidazol-1-yl)-pyridin-2-yl]-benzamide] | 100 to 500
31 | COc1ccc2c(c1)nc(C(F)(F)F)n2-c1ccc(NC(=O)c2cccc([N+](=O)[O-])c2)nc1 [Compound 184, N-[5-(5-Methoxy-2-trifluoromethyl-benzoimidazol-1-yl)-pyridin-2-yl]-3-nitro-benzamide] | 100 to 500
32 | COc1ccc2c(c1)nc(C(F)(F)F)n2-c1ccc(NC(=O)c2ccc(Cl)cc2F)nc1 [Compound 177, 4-Chloro-2-fluoro-N-[5-(5-methoxy-2-trifluoromethyl-benzoimidazol-1-yl)-pyridin-2-yl]-benzamide] | 100 to 500
33 | COc1ccc2c(c1)nc(C(F)(F)F)n2-c1ccc(NC(=O)C2CC2)nc1 [Compound 172, Cyclopropanecarboxylic acid [5-(5-methoxy-2-trifluoromethyl-benzoimidazol-1-yl)-pyridin-2-yl]-amide] | > 1000
34 | COc1ccc2c(c1)nc(C(F)(F)F)n2-c1ccc(NC(=O)c2cccc(I)c2)nc1 [Compound 181, 3-Iodo-N-[5-(5-methoxy-2-trifluoromethyl-benzoimidazol-1-yl)-pyridin-2-yl]-benzamide] | > 1000
35 | COc1ccc2c(c1)nc(C(F)(F)F)n2-c1ccc(NC(=O)c2cccc(C#N)c2)nc1 [Compound 183, 3-Cyano-N-[5-(5-methoxy-2-trifluoromethyl-benzoimidazol-1-yl)-pyridin-2-yl]-benzamide] | 100 to 500
36 | COc1ccc2c(c1)nc(C(F)(F)F)n2-c1ccc(NC(=O)c2ccc(F)cc2F)nc1 [Compound 175] | < 100
37 | COc1ccc2c(c1)nc(C(F)(F)F)n2-c1ccc(NC(=O)c2ccc(C#N)cc2)nc1 [Compound 166, 4-Cyano-N-[5-(5-methoxy-2-trifluoromethyl-benzoimidazol-1-yl)-pyridin-2-yl]-benzamide] | 100 to 500
